Among the data in PMC8286840, “Identifying SARS-CoV-2 antiviral compounds by screening for small molecule inhibitors of Nsp3 papain-like protease” (Biochemical Journal, 2021) are remaining activity values, retold here.

Where a name gives a salt, the structure may show the parent alone. Read-outs that look alike come from different tables or passages of the source.

Experiment [1] has as its target T1, SARS-CoV-2 PLpro (nsp3 1564–1878) (Severe acute respiratory syndrome coronavirus 2, UniProt P0DTD1). In words: biochemical. Set-up: FRET-quenched peptide (Pro3) cleavage by PLpro, 10 min pre-incubation, slope over 20 min, normalised to no-compound control. Particulars: low concentration screen, read-out: % of control remaining.
In experiment [2] the target is T1, SARS-CoV-2 PLpro (nsp3 1564–1878). The experiment can be described thus: biochemical. More on the design: FRET-quenched peptide (Pro3) cleavage by PLpro, 10 min pre-incubation, slope over 20 min, normalised to no-compound control. Particulars: high concentration screen, read-out: % of control remaining.

With `COC(=O)N[C@H](C(=O)N[C@@H](Cc1ccccc1)[C@@H](O)CN(Cc1ccc(-c2ccccn2)cc1)NC(=O)[C@@H](NC(=O)OC)C(C)(C)C)C(C)(C)C` [Atazanavir sulfate], in experiment [1] (Well no.=5245), the remaining activity at 1.25 µM turned out to be 96.5%. Besides, in experiment [2] (Well no.=5245), the remaining activity at 3.75 µM stood at 101%.
As for `Oc1cc2c(cc1O)[C@H]1c3ccccc3CN[C@@H]1CC2` (racemic) [Dihydrexidine hydrochloride], the remaining activity at 1.25 µM in experiment [1] (Well no.=645) was 87.6%. Further, the remaining activity at 3.75 µM in experiment [2] (Well no.=645) stood at 91.3%.
Turning to `O=C(NCCO[N+](=O)[O-])c1cccnc1` [Nicorandil], the remaining activity at 1.25 µM in experiment [1] (Well no.=1812) amounted to 99%. Moreover, in experiment [2] (Well no.=1812), the remaining activity at 3.75 µM amounted to 95.8%.
Consider `O=C(Oc1cc(S(=O)(=O)c2ccccc2)ccc1[N+](=O)[O-])c1ccc(Cl)cc1` [BTB06584], for which the remaining activity at 1.25 µM in experiment [1] (Well no.=5965) is 102%. Also, the remaining activity at 3.75 µM in experiment [2] (Well no.=5965) was found to be 102%.
On to `CCCCCN(CCCCC)C(=O)C(CCC(=O)O)NC(=O)c1ccc(Cl)c(Cl)c1` (stereo not drawn) [Lorglumide sodium], for which the remaining activity at 1.25 µM in experiment [1] (Well no.=820) was 102%. Moreover, the remaining activity at 3.75 µM in experiment [2] (Well no.=820) amounted to 99.3%.
With `Cc1ccc(NC(=O)c2cccc(N(C)C)c2)cc1NC(=O)c1ccc(O)cc1` [ZM 336372], the remaining activity at 1.25 µM in experiment [1] (Well no.=5878) came out at 103%. For the same compound, the remaining activity at 3.75 µM in experiment [2] (Well no.=5878) worked out at 102%.
In the case of `C[N+]1(C)CCC(=C(c2ccccc2)c2ccccc2)CC1` [Diphemanil Methylsulfate], the remaining activity at 1.25 µM in experiment [1] (Well no.=5118) was found to be 109%. Moreover, in experiment [2] (Well no.=5118), the remaining activity at 3.75 µM came out at 108%.
In the case of `CCOc1cc(N2CCC(O)CC2)ccc1Nc1ncc2c(n1)N(C)c1ccccc1C(=O)N2C` [XMD8-92], in experiment [1] (Well no.=5565), the remaining activity at 1.25 µM amounted to 93.8%. Also, in experiment [2] (Well no.=5565), the remaining activity at 3.75 µM came to 95.2%.
Consider `C[C@]12CC[C@@H]3c4ccc(OC(=O)c5ccccc5)cc4CC[C@H]3[C@@H]1CC[C@@H]2O` [Estradiol Benzoate], for which the remaining activity at 1.25 µM in experiment [1] (Well no.=5134) worked out at 105%. The remaining activity at 3.75 µM in experiment [2] (Well no.=5134) stood at 104%.
Turning to `OC[C@H]1O[C@@H](n2cnc3c(N[C@@H]4CCc5ccccc54)ncnc32)[C@H](O)[C@@H]1O` [PD 117519], the remaining activity at 1.25 µM in experiment [1] (Well no.=7763) is 96.4%; in experiment [1] (Well no.=8169), 106%. Besides, the remaining activity at 3.75 µM is 102% in experiment [2] (Well no.=7763) and 110% in experiment [2] (Well no.=8169).
For `CO[C@@H]1[C@H](O)C[C@@H](O[C@@H]2C[C@H](Oc3cc4cc5c(c(O)c4c(O)c3C)C(=O)[C@@H](O[C@H]3C[C@@H](O[C@H]4C[C@@H](O[C@H]6C[C@](C)(O)[C@@H](OC(C)=O)[C@H](C)O6)[C@H](O)[C@@H](C)O4)[C@H](O)[C@@H](C)O3)[C@H]([C@H](OC)C(=O)[C@@H](O)[C@@H](C)O)C5)O[C@H](C)[C@@H]2OC(C)=O)O[C@@H]1C` [Chromomycin A3], in experiment [1] (Well no.=3579), the remaining activity at 1.25 µM turned out to be 103%. Further, in experiment [2] (Well no.=3579), the remaining activity at 3.75 µM is 107%.
As to `COc1ccc2c(c1)c(CC(=O)O)c(C)n2Cc1ccc(F)cc1` [1-(4-Fluorobenzyl)-5-methoxy-2-methylindole-3-acetic acid], in experiment [1] (Well no.=515), the remaining activity at 1.25 µM turned out to be 99.4%. In addition, the remaining activity at 3.75 µM in experiment [2] (Well no.=515) stood at 99.5%.
Take `CCN(CC)C(=O)[C@]1(c2ccccc2)C[C@@H]1CN` (racemic) [Milnacipran HCl]: the remaining activity at 1.25 µM in experiment [1] (Well no.=4977) was 102%. Further, the remaining activity at 3.75 µM in experiment [2] (Well no.=4977) is 101%.
Consider `CC(C)(C)NCC(O)c1cc(Cl)c(N)c(Cl)c1` (stereo not drawn) [Clenbuterol], for which the remaining activity at 1.25 µM in experiment [1] (Well no.=1743) came to 102%. In addition, in experiment [2] (Well no.=1743), the remaining activity at 3.75 µM amounted to 102%.
Consider `COc1ccc(C(=O)CC2(O)C(=O)Nc3c(Cl)ccc(Cl)c32)cc1` (stereo not drawn) [YK-4-279], for which the remaining activity at 1.25 µM in experiment [1] (Well no.=6444) is 97.8%. Further, in experiment [2] (Well no.=6444), the remaining activity at 3.75 µM came out at 98.7%.
For `CC(C(=O)O)c1ccc(-c2ccccc2)c(F)c1` (stereo not drawn) [Flurbiprofen], in experiment [1] (Well no.=2118), the remaining activity at 1.25 µM is 99.6%. Also, in experiment [2] (Well no.=2118), the remaining activity at 3.75 µM was found to be 101%.
Consider `N#CC[C@H](C1CCCC1)n1cc(-c2ncnc3[nH]ccc23)cn1` [Ruxolitinib (INCB018424)], for which, in experiment [1] (Well no.=4805), the remaining activity at 1.25 µM came to 103%. Moreover, the remaining activity at 3.75 µM in experiment [2] (Well no.=4805) was 104%.
As for `Cn1c(=O)c2c(ncn2CC(O)CO)n(C)c1=O` (stereo not drawn) [Diphylline], the remaining activity at 1.25 µM in experiment [1] (Well no.=7387) was determined as 106%; in experiment [1] (Well no.=8273), 101%. Also, the remaining activity at 3.75 µM was determined as 105% in experiment [2] (Well no.=7387) and 98.7% in experiment [2] (Well no.=8273).
Regarding `CC(C)c1cc(-c2ccc(F)c3ccccc23)nc(N)n1` [RS-127445], in experiment [1] (Well no.=4683), the remaining activity at 1.25 µM amounted to 106%. For the same compound, the remaining activity at 3.75 µM in experiment [2] (Well no.=4683) was found to be 102%.
With `CCCS(=O)(=O)Nc1ccc(F)c(C(=O)c2c[nH]c3ncc(Cl)cc23)c1F` [PLX4720], in experiment [1] (Well no.=2795), the remaining activity at 1.25 µM is 97.5%. Moreover, the remaining activity at 3.75 µM in experiment [2] (Well no.=2795) is 99.9%.
Take `COc1ccc2c3c1O[C@H]1C[C@@H](O)C=C[C@@]31CCN(C)C2` [Galanthamine]: in experiment [1] (Well no.=1707), the remaining activity at 1.25 µM worked out at 105%. In experiment [2] (Well no.=1707), the remaining activity at 3.75 µM worked out at 101%.
For the compound `CC(=O)[C@H]1CC[C@H]2[C@@H]3CCC4=CC(=O)CC[C@]4(C)[C@H]3CC[C@]12C` [Progesterone], the figures for the remaining activity at 1.25 µM in experiment [1] (Well no.=852), in experiment [1] (Well no.=2143) and in experiment [1] (Well no.=7071) were 106%, 95.2% and 105%, respectively. Further, the values for the remaining activity at 3.75 µM in experiment [2] (Well no.=852), in experiment [2] (Well no.=2143) and in experiment [2] (Well no.=7071) were 107%, 101% and 104%, respectively.
As to `CCCCC[C@@H](/C=C/C=C\CCCCCCCCCC(=O)O)OO` [15(S)-HPEDE], the remaining activity at 1.25 µM in experiment [1] (Well no.=4333) worked out at 108%. Moreover, the remaining activity at 3.75 µM in experiment [2] (Well no.=4333) is 105%.
For `CCCCC/C=C\C\C=C/C=C/C=C/[C@@H](O)[C@@H](O)CCCC(=O)O` [5(S),6(R)-DIHETE], the remaining activity at 1.25 µM in experiment [1] (Well no.=4373) came to 106%. Further, the remaining activity at 3.75 µM in experiment [2] (Well no.=4373) came to 103%.
With `COc1cc([C@@H]2c3cc4c(cc3[C@H](O)[C@H]3COC(=O)[C@@H]23)OCO4)cc(OC)c1OC` [Picropodophyllin], the remaining activity at 1.25 µM in experiment [1] (Well no.=3341) turned out to be 95.7%. For the same compound, in experiment [2] (Well no.=3341), the remaining activity at 3.75 µM turned out to be 98.4%.
Take `CCN(CC)CCNC(=O)c1cc(Cl)c(N)cc1OC` [Metoclopramide (hydrochloride hydrate)]: the remaining activity at 1.25 µM in experiment [1] (Well no.=7435) is 106%. The remaining activity at 3.75 µM in experiment [2] (Well no.=7435) was 109%.
Turning to `Cc1ccc(O)c(O)c1` [4-Methylcatechol], the remaining activity at 1.25 µM in experiment [1] (Well no.=6739) is 106%. Further, the remaining activity at 3.75 µM in experiment [2] (Well no.=6739) was 108%.
Take `COc1ccc(CCCOC(Cn2ccnc2)c2ccc(OC)cc2)cc1` (stereo not drawn) [SKF 96365]: the remaining activity at 1.25 µM in experiment [1] (Well no.=1412) turned out to be 98.9%. Also, the remaining activity at 3.75 µM in experiment [2] (Well no.=1412) came out at 100%.
Consider `O=C1c2c(O)cc(O)cc2O[C@H](c2ccc(O)c(O)c2)[C@H]1O` [(+)-Taxifolin], for which, in experiment [1] (Well no.=3825), the remaining activity at 1.25 µM was determined as 101%. For the same compound, the remaining activity at 3.75 µM in experiment [2] (Well no.=3825) worked out at 101%.
